Measured values as given in BindingDB's records for PubMed 9353393 (Torrey Pines Institute For Molecular Studies, 1997).
Residues, ends and D or L forms follow the SMILES beside them.

target: Nociceptin receptor (Mus musculus, UniProt P35377)
Sequence (P35377 whole entry): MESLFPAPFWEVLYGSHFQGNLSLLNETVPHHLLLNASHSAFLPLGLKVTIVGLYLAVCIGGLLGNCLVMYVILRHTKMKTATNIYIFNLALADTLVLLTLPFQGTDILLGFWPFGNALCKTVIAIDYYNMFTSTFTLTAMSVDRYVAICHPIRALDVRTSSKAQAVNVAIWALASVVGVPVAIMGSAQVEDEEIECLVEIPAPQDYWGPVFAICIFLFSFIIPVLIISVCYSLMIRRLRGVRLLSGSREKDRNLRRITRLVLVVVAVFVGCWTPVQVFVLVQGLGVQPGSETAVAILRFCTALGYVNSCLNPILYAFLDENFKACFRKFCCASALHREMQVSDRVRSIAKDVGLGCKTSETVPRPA

`CC[C@H](C)[C@H](NC(=O)[C@H](CCCN=C(N)N)NC(=O)[C@H](Cc1ccc(O)cc1)NC(=O)[C@H](Cc1ccc(O)cc1)NC(=O)[C@H](CCCN=C(N)N)NC(C)=O)C(=O)N[C@@H](CCCCN)C(N)=O` [CAS_200959-48-4] and `CC(=O)N[C@@H](CCCNC(=N)N)C(=O)N[C@@H](Cc1ccc(O)cc1)C(=O)N[C@@H](Cc1ccc(O)cc1)C(=O)N[C@@H](CCCCN)C(=O)N[C@@H](Cc1c[nH]c2ccccc12)C(=O)N[C@@H](CCCN=C(N)N)C(N)=O` [Ac-RYYKWR-NH2] (Ac-RYYKWR-NH2) are within 1.5-fold of each other in Ki: 1.5 nM for the first, 1.47 nM for the second.

`CC(=O)N[C@@H](CCCNC(=N)N)C(=O)N[C@@H](Cc1ccc(O)cc1)C(=O)N[C@@H](Cc1ccc(O)cc1)C(=O)N[C@@H](CCCNC(=N)N)C(=O)N[C@@H](Cc1c[nH]c2ccccc12)C(=O)N[C@@H](CCCN=C(N)N)C(N)=O` [Ac-RYYRWR-NH2] (Ac-RYYRWR-NH2) and `CC(=O)N[C@@H](CCCNC(=N)N)C(=O)N[C@@H](Cc1ccc(O)cc1)C(=O)N[C@@H](Cc1ccc(O)cc1)C(=O)N[C@@H](CCCNC(=N)N)C(=O)N[C@@H](Cc1c[nH]c2ccccc12)C(=O)N[C@@H](CCCCN)C(N)=O` [CAS_200959-47-3] (Ac-RYYRWK-NH2) are within 1.5-fold of each other in Ki: 0.6 nM for the first, 0.71 nM for the second.

`CC(C)C[C@H](NC(=O)[C@H](CCCCN)NC(=O)[C@H](CCCN=C(N)N)NC(=O)[C@H](C)NC(=O)[C@H](CO)NC(=O)[C@H](CCCCN)NC(=O)[C@H](CCCN=C(N)N)NC(=O)[C@H](C)NC(=O)CNC(=O)[C@@H](NC(=O)[C@H](Cc1ccccc1)NC(=O)CNC(=O)CNC(=O)[C@@H](N)Cc1ccccc1)[C@@H](C)O)C(=O)N[C@@H](C)C(=O)N[C@@H](CC(N)=O)C(=O)N[C@@H](CCC(N)=O)C(=O)O` [OFQ 1-17] was tested, and the Ki was 0.43 nM.
